Data as given in patent US20080254016A1, “Composition For Increasing Anti-Oxidation Activity In Blood” (Kaneka Corporation, priority 2005, published 2008).

Experiments:
[1] = Reduced coenzyme Q10 ratio in plasma after oral administration, 54-week-old SD rats (Example 1); assay type: in vivo
Source text: (§1) The ratio of the reduced form to the total coenzyme Q10 is generally determined by a method comprising quantifying oxidized coenzyme Q10 and reduced coenzyme Q10 in a sample by high performance liquid chromatography (HPLC) using an UV detector and calculating the ratio from the volume ratio obtained, or a method comprising using an HPLC system incorporated with an electrochemical detector for calculating the ratio of oxidized coenzyme Q10 and reduced coenzyme Q10 from the peak area. The HPLC system incorporated with an electrochemical detector makes it possible to specifically determine oxidation-reduction substances and has high sensitivity, and thus is highly useful for determining trace amount of reduced coenzyme Q10 in the living body or samples. In the present invention, all the reduced coenzyme Q10 ratios are determined by the HPLC system incorporated with an electrochemical detector.
(§2) In these Examples, the ratio of reduced coenzyme Q10 to the total coenzyme Q10 was determined using the HPLC system incorporated with an electrochemical detector (product of Shiseido Co., Ltd.) and a reduction column (product of Shiseido Co., Ltd.).
(§3) 10 SD rats (54-week-old, males) were divided into 2 groups each consisted of 5 rats so that each group had the same average body weight value. To one group, a solution of reduced coenzyme Q10 in soybean oil (containing about 1% of oxidized coenzyme Q10) was orally administered, and to the other group, a solution of oxidized coenzyme Q10 in soybean oil was orally administered, each at the dose of 100 mg/kg body weight in coenzyme Q10 equivalent. Then, the reduced coenzyme Q10 ratio in plasma was determined with time lapses. Blood was collected after 1, 2, 4 and 8 hours of oral administration, and centrifuged to obtain plasma. The concentration of reduced coenzyme Q10 and oxidized coenzyme Q10 in the obtained plasma was quantified using HPLC in order to determine the ratio of the reduced form.

[2] = Reduced coenzyme Q10 ratio in plasma after oral administration, 5-week-old SD rats (Reference Example 1); assay type: in vivo
Source text: as §1, with “The HPLC system incorporated with an electrochemical detector makes it possible to specifically determine oxidation-reduction substances and has high sensitivity, and thus is highly useful for determining trace amount of reduced coenzyme Q10 in the living body or samples.” left out
as §2
10 SD rats (5-week-old, males) were divided into 2 groups each consisted of 5 rats so that each group had the same average body weight value. […] Then, the reduced coenzyme Q10 ratio in plasma was determined with time lapses. […] The concentration of reduced coenzyme Q10 and oxidized coenzyme Q10 in the obtained plasma was quantified using HPLC in order to determine the reduced coenzyme Q10 ratio.

[3] = healthy person, intake of oxidized coenzyme Q10; cited from earlier work
[4] = Reduced coenzyme Q10 ratio in plasma after oral administration, 62-week-old SD rats (Example 2); assay type: in vivo
Source text: as §1, §2
as §3, with “SD rats (62-week-old, males) were” for “SD rats (54-week-old, males) were”, “reduced coenzyme Q10in soybean oil” for “reduced coenzyme Q10 in soybean oil”

[5] = Reduced coenzyme Q10 ratio in plasma of healthy aged people fed soft capsules (Example 3); assay type: in vivo, human; conditions: healthy aged people 64 to 77 years old, two soft capsules (100 mg of coenzyme Q10), since 2 hours after administration
Source text: as §1, with “The HPLC system incorporated with an electrochemical detector makes it possible to specifically determine oxidation-reduction substances and has high sensitivity, and thus is highly useful for determining trace amount of reduced coenzyme Q10 in the living body or samples.” left out
as §2
Two soft capsules obtained in Preparation Example 5 and Comparative Preparation Example 1 (containing 100 mg of coenzyme Q10) were fed to two groups of healthy aged people (20 male and female individuals in each group, age: 64 to 77 years old), and the effect on the reduced coenzyme Q10 ratio in plasma was evaluated.

[6] = male, SD, rat, in vivo, po, 100 mg/kg, 1 h
[7] = male, SD, rat, in vivo, po, 100 mg/kg, 8 h

| ratio of the reduced form of coenzyme Q10 in plasma [1, 6] | ratio of the reduced form of coenzyme Q10 in plasma [1, 7] | difference in the reduced coenzyme Q10 ratio in plasma between administration of reduced and oxidized coenzyme Q10 ([2]; rat, in vivo, po, 100 mg/kg) | ratio of the reduced form of coenzyme Q10 in plasma [4, 6] | ratio of the reduced form of coenzyme Q10 in plasma [4, 7] | ratio of the reduced form of coenzyme Q10 in plasma ([1]; 54-week-old male SD rats, 100 mg/kg oral in soybean oil, over 1-8 hours) | difference in the reduced coenzyme Q10 ratio in plasma between administration of reduced and oxidized coenzyme Q10 ([2]; 5-week-old male SD rats, 100 mg/kg oral in soybean oil, after 2 hours or later of administration) | ratio of reduced coenzyme Q10 to the total coenzyme Q10 in plasma, time course [5] | ratio of the reduced form of coenzyme Q10 in plasma ([4]; 62-week-old male SD rats, 100 mg/kg oral in soybean oil, over 1-8 hours) | Structure (SMILES) | amount of reduced coenzyme Q10 in plasma [3] | ratio of reduced coenzyme Q10 to oxidized coenzyme Q10 in plasma [3] |
| --- | --- | --- | --- | --- | --- | --- | --- | --- | --- | --- | --- |
| about 76% | about 87% | almost no difference | about 74% | about 78% |  |  |  |  | COC1=C(OC)C(=O)C(C/C=C(\C)CCC=C(C)CCC=C(C)CCC=C(C)CCC=C(C)CCC=C(C)CCC=C(C)CCC=C(C)CCC=C(C)CCC=C(C)C)=C(C)C1=O [oxidized coenzyme Q10] | increased | unchanged |
|  |  |  |  |  | around 90% | almost no difference | increased with the lapse of time | around 90% | COc1c(O)c(C)c(C/C=C(\C)CC/C=C(\C)CC/C=C(\C)CC/C=C(\C)CC/C=C(\C)CC/C=C(\C)CC/C=C(\C)CC/C=C(\C)CC/C=C(\C)CCC=C(C)C)c(O)c1OC [reduced coenzyme Q10] |  |  |
